The record followed here is the supplement of paper PMC10627819.

Structures are written as SMILES.

What all share (test): Bliss interaction score (quartile over a dose matrix) (fitness difference); higher = more antagonism (negative = synergy)
One assay relates to B. subtilis 168. The method, boiled down: (§1)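 The Bliss score takes observed fitness and subtracts the expected fitness, calculated as a product of single-drug fitness values. Those single-drug values were inferred from the combination data. Fitness is OD595 at entry into stationary phase divided by the plate's robust no-drug mean, capped at 1, and the score is summarised by quartiles across technical, biological and donor/recipient replicates.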

In the next assay the test system is S. aureus DSM 20231. In outline: as §1
Another assay concerns S. aureus Newman. In outline:
as §1

The next assay has as its system S. pneumoniae D39V. In outline:
as §1
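Note: first quartile when negative (synergy) and third quartile when positive (antagonism).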

As to `CN[C@H](CC(C)C)C(=O)N[C@H]1C(=O)N[C@@H](CC(N)=O)C(=O)N[C@H]2C(=O)N[C@H]3C(=O)N[C@H](C(=O)N[C@H](C(=O)O)c4cc(O)cc(O)c4-c4cc3ccc4O)[C@H](O[C@H]3C[C@](C)(N)[C@@H](O)[C@H](C)O3)c3ccc(c(Cl)c3)Oc3cc2cc(c3O[C@@H]2O[C@H](CO)[C@@H](O)[C@H](O)[C@H]2O[C@H]2C[C@](C)(NCc3ccc(-c4ccc(Cl)cc4)cc3)[C@@H](O)[C@H](C)O2)Oc2ccc(cc2Cl)[C@H]1O` [Oritavancin] + C/C(=C\C(=O)OCCCCCCCCC(=O)O)C[C@@H]1OC[C@H](C[C@@H]2O[C@H]2[C@@H](C)[C@H](C)O)[C@@H](O)[C@H]1O [Pseudomonic acid], the Bliss interaction score in the assay on B. subtilis 168 amounted to 0.0341; with S. aureus DSM 20231, 0.0201; in the assay on S. aureus Newman, 0.0197; with S. pneumoniae D39V, 0.0558.
As to `CO[C@@H]1[C@@H](OC(N)=O)[C@@H](O)[C@H](Oc2ccc3c(O)c(NC(=O)c4ccc(O)c(CC=C(C)C)c4)c(=O)oc3c2C)OC1(C)C` [Novobiocin] + Oc1cc(Cl)ccc1Oc1ccc(Cl)cc1Cl [Triclosan], the Bliss interaction score in the assay on B. subtilis 168 is 0.0532; in the assay with S. aureus DSM 20231 it was 0.0686; in the assay with S. aureus Newman it was -0.0304; with S. pneumoniae D39V, 0.177.
`CC[C@H]1OC(=O)[C@H](C)[C@@H](O[C@H]2C[C@@](C)(OC)[C@@H](O)[C@H](C)O2)[C@H](C)[C@@H](O[C@@H]2O[C@H](C)C[C@H](N(C)C)[C@H]2O)[C@](C)(O)C[C@@H](C)C(=O)[C@H](C)[C@@H](O)[C@]1(C)O` [Erythromycin] + CC1(C)S[C@@H]2[C@H](NC(=O)Cc3ccccc3)C(=O)N2[C@H]1C(=O)O [PenicillinG]: the Bliss interaction score in the assay on B. subtilis 168 is 0.0463; in the assay with S. aureus DSM 20231, 0.0265; with S. aureus Newman it was -0.0654; in the assay on S. pneumoniae D39V it was -0.0381.
As to `CO[C@@]12[C@H](COC(N)=O)C3=C(C(=O)C(C)=C(N)C3=O)N1C[C@@H]1N[C@@H]12` [MitomycinC] + CCCSc1nc(N[C@@H]2C[C@H]2c2ccc(F)c(F)c2)c2nnn([C@@H]3C[C@H](OCCO)[C@@H](O)[C@H]3O)c2n1 [Ticagrelor], the Bliss interaction score in the assay on S. aureus DSM 20231 is -0.392.
As for `CC(C)(O)c1ccccc1CC[C@@H](SCC1(CC(=O)O)CC1)c1cccc(/C=C/c2ccc3ccc(Cl)cc3n2)c1` [Montelukast] + CCC(C)C1C(=O)NC(=C)C(=O)NC(C(=O)NC(CSCC(C(=O)N1)NC(=O)/C(=C/C)/NC(=O)C(C(C)CC)N)C(=O)NC2C(SCC(NC(=O)CNC(=O)C3CCCN3C2=O)C(=O)NC(CCCCN)C(=O)NC4C(SCC(NC(=O)CNC(=O)C(NC(=O)C(NC(=O)C(NC(=O)CNC4=O)C)CC(C)C)CCSC)C(=O)NC(CC(=O)N)C(=O)NC(CCSC)C(=O)NC(CCCCN)C(=O)NC5C(SCC6C(=O)NC(C(=O)NC(CSC(C(C(=O)N6)NC(=O)C(NC5=O)C)C)C(=O)NC(CO)C(=O)NC(C(C)CC)C(=O)NC(CC7=CN=CN7)C(=O)NC(C(C)C)C(=O)NC(=C)C(=O)NC(CCCCN)C(=O)O)CC8=CN=CN8)C)C)C)CC(C)C [Nisin], the Bliss interaction score in the assay on S. aureus DSM 20231 (main component drawn) was determined as 0.297.
For the molecule `CO[C@@]12[C@H](COC(N)=O)C3=C(C(=O)C(C)=C(N)C3=O)N1C[C@@H]1N[C@@H]12` [MitomycinC] + CCCc1nc2c(C)cc(-c3nc4ccccc4n3C)cc2n1Cc1ccc(-c2ccccc2C(=O)O)cc1 [Telmisartan], the Bliss interaction score in the assay with S. aureus DSM 20231 was -0.162.
Take `O=c1[nH]cc(F)c(=O)[nH]1` [Fluorouracil] + O=C1CN(/N=C/c2ccc([N+](=O)[O-])o2)C(=O)N1 [Nitrofurantoin]: the Bliss interaction score in the assay with S. aureus DSM 20231 is -0.206.
As to `CO[C@@]12[C@H](COC(N)=O)C3=C(C(=O)C(C)=C(N)C3=O)N1C[C@@H]1N[C@@H]12` [MitomycinC] + COc1ccc(CCN(C)CCCC(C#N)(c2ccc(OC)c(OC)c2)C(C)C)cc1OC [Verapamil], the Bliss interaction score in the assay on S. aureus DSM 20231 amounted to 0.195.
`O=c1[nH]cc(F)c(=O)[nH]1` [Fluorouracil] + CN(C)C(=O)C(CCN1CCC(O)(c2ccc(Cl)cc2)CC1)(c1ccccc1)c1ccccc1 [Loperamide]: the Bliss interaction score with S. aureus DSM 20231 amounted to 0.195.
As to `CN[C@@H]1[C@H](O[C@H]2[C@H](O[C@H]3[C@H](O)[C@@H](O)[C@H](N=C(N)N)[C@@H](O)[C@@H]3N=C(N)N)O[C@@H](C)[C@]2(O)C=O)O[C@@H](CO)[C@H](O)[C@H]1O` [Streptomycin] + CCCSc1nc(N[C@@H]2C[C@H]2c2ccc(F)c(F)c2)c2nnn([C@@H]3C[C@H](OCCO)[C@@H](O)[C@H]3O)c2n1 [Ticagrelor], the Bliss interaction score in the assay on S. aureus DSM 20231 was -0.259.
The same measure, in the same setting: next, `CC[C@H](c1ccc(O)cc1)[C@@H](CC)c1ccc(O)cc1` [Hexestrol] + CN(C)C(=O)C(CCN1CCC(O)(c2ccc(Cl)cc2)CC1)(c1ccccc1)c1ccccc1 [Loperamide]: -0.456.
For the molecule `C=C1/C(=C\C=C2/CCC[C@]3(C)[C@@H]([C@H](C)CCCC(C)C)CC[C@@H]23)C[C@@H](O)C[C@@H]1O` [Alfacalcidol] + O=C1CN(/N=C/c2ccc([N+](=O)[O-])o2)C(=O)N1 [Nitrofurantoin], in the assay on S. aureus DSM 20231, the Bliss interaction score was found to be 0.185.
Same read-out and setting: next, `CN[C@@H]1[C@H](O[C@H]2[C@H](O[C@H]3[C@H](O)[C@@H](O)[C@H](N=C(N)N)[C@@H](O)[C@@H]3N=C(N)N)O[C@@H](C)[C@]2(O)C=O)O[C@@H](CO)[C@H](O)[C@H]1O` [Streptomycin] + CC/C(=C(\c1ccccc1)c1ccc(OCCN(C)C)cc1)c1ccccc1 [Tamoxifene]: 0.166; `CC(C)Cc1ccc(C(C)C(=O)O)cc1` (configuration not stated) [Ibuprofen] + COc1cc(Cc2cnc(N)nc2N)cc(OC)c1OC [Trimethoprim]: -0.145.
`CO[C@@]12[C@H](COC(N)=O)C3=C(C(=O)C(C)=C(N)C3=O)N1C[C@@H]1N[C@@H]12` [MitomycinC] + Cc1c(Cl)cccc1Nc1ccccc1C(=O)O [Tolfenamic]: the Bliss interaction score in the assay with S. aureus DSM 20231 is -0.273.
For the molecule `CN(Cc1cnc2nc(N)nc(N)c2n1)c1ccc(C(=O)N[C@@H](CCC(=O)O)C(=O)O)cc1` [Methotrexate] + CC1(C)S[C@@H]2[C@H](NC(=O)Cc3ccccc3)C(=O)N2[C@H]1C(=O)O [PenicillinG], the Bliss interaction score in the assay on S. aureus DSM 20231 was -0.169.
In the case of `CO[C@@]12[C@H](COC(N)=O)C3=C(C(=O)C(C)=C(N)C3=O)N1C[C@@H]1N[C@@H]12` [MitomycinC] + COc1ccc2[nH]c([S+]([O-])Cc3ncc(C)c(OC)c3C)nc2c1 [Omeprazole], the Bliss interaction score in the assay with S. aureus DSM 20231 amounted to 0.169.
Consider `CC[C@H](C)[C@H](N)C1=N[C@H](C(=O)N[C@@H](CC(C)C)C(=O)N[C@H](CCC(=O)O)C(=O)N[C@H](C(=O)N[C@H]2CCCCNC(=O)[C@H](CC(N)=O)NC(=O)[C@@H](CC(=O)O)NC(=O)[C@H](Cc3cnc[nH]3)NC(=O)[C@@H](Cc3ccccc3)NC(=O)[C@H]([C@@H](C)CC)NC(=O)[C@@H](CCCN)NC2=O)[C@@H](C)CC)CS1` [Bacitracin] + CCCSc1nc(N[C@@H]2C[C@H]2c2ccc(F)c(F)c2)c2nnn([C@@H]3C[C@H](OCCO)[C@@H](O)[C@H]3O)c2n1 [Ticagrelor], for which the Bliss interaction score in the assay on S. aureus DSM 20231 (main component drawn) is -0.27.
Regarding `O=c1[nH]cc(F)c(=O)[nH]1` [Fluorouracil] + CN[C@@H]1[C@H](O[C@H]2[C@H](O[C@H]3[C@H](O)[C@@H](O)[C@H](N=C(N)N)[C@@H](O)[C@@H]3N=C(N)N)O[C@@H](C)[C@]2(O)C=O)O[C@@H](CO)[C@H](O)[C@H]1O [Streptomycin], the Bliss interaction score in the assay on S. aureus DSM 20231 is -0.184.
For the molecule `CO[C@H]1/C=C/O[C@@]2(C)Oc3c(C)c(O)c4c(O)c(c(/C=N/N5CCN(C)CC5)c(O)c4c3C2=O)NC(=O)/C(C)=C\C=C\[C@H](C)[C@H](O)[C@@H](C)[C@@H](O)[C@@H](C)[C@H](OC(C)=O)[C@@H]1C` [Rifampicin] + CCCSc1nc(N[C@@H]2C[C@H]2c2ccc(F)c(F)c2)c2nnn([C@@H]3C[C@H](OCCO)[C@@H](O)[C@H]3O)c2n1 [Ticagrelor], the Bliss interaction score in the assay with S. aureus DSM 20231 is 0.245.
Regarding `CC[C@H](C)[C@H](N)C1=N[C@H](C(=O)N[C@@H](CC(C)C)C(=O)N[C@H](CCC(=O)O)C(=O)N[C@H](C(=O)N[C@H]2CCCCNC(=O)[C@H](CC(N)=O)NC(=O)[C@@H](CC(=O)O)NC(=O)[C@H](Cc3cnc[nH]3)NC(=O)[C@@H](Cc3ccccc3)NC(=O)[C@H]([C@@H](C)CC)NC(=O)[C@@H](CCCN)NC2=O)[C@@H](C)CC)CS1` [Bacitracin] + C[C@H]1C[C@@H]2[C@H]([C@@H](O)C[C@@]3(C)[C@H]2CC[C@]3(O)C(=O)CO)[C@@]2(C)C=CC(=O)C=C12 [Methylprednisolone], the Bliss interaction score in the assay with S. aureus DSM 20231 (main component drawn) was -0.282.
In the case of `CN[C@@H]1[C@H](O)[C@H](NC)[C@H]2O[C@@]3(O)C(=O)C[C@@H](C)O[C@H]3O[C@@H]2[C@H]1O` [Spectinomycin] + Cc1c(Cl)cccc1Nc1ccccc1C(=O)O [Tolfenamic], the Bliss interaction score in the assay with S. aureus DSM 20231 is 0.145.
`CN(Cc1cnc2nc(N)nc(N)c2n1)c1ccc(C(=O)N[C@@H](CCC(=O)O)C(=O)O)cc1` [Methotrexate] + COc1cc(Cc2cnc(N)nc2N)cc(OC)c1OC [Trimethoprim]: the Bliss interaction score in the assay on S. aureus DSM 20231 is -0.242.
Take `CC(C)Cc1ccc(C(C)C(=O)O)cc1` (configuration not stated) [Ibuprofen] + C/C(=C\C(=O)OCCCCCCCCC(=O)O)C[C@@H]1OC[C@H](C[C@@H]2O[C@H]2[C@@H](C)[C@H](C)O)[C@@H](O)[C@H]1O [Pseudomonic acid]: the Bliss interaction score with S. aureus DSM 20231 stood at 0.169.
On to `CC(=O)NC[C@H]1CN(c2ccc(N3CCOCC3)c(F)c2)C(=O)O1` [Linezolid] + COc1ccc2[nH]c([S+]([O-])Cc3ncc(C)c(OC)c3C)nc2c1 [Omeprazole], for which, in the assay on S. aureus DSM 20231, the Bliss interaction score was found to be 0.192.
On to `CO[C@@H]1[C@@H](OC(N)=O)[C@@H](O)[C@H](Oc2ccc3c(O)c(NC(=O)c4ccc(O)c(CC=C(C)C)c4)c(=O)oc3c2C)OC1(C)C` [Novobiocin] + CCCSc1nc(N[C@@H]2C[C@H]2c2ccc(F)c(F)c2)c2nnn([C@@H]3C[C@H](OCCO)[C@@H](O)[C@H]3O)c2n1 [Ticagrelor], for which the Bliss interaction score in the assay with S. aureus DSM 20231 stood at 0.177.
Take `CN[C@@H]1[C@H](O[C@H]2[C@H](O[C@H]3[C@H](O)[C@@H](O)[C@H](N=C(N)N)[C@@H](O)[C@@H]3N=C(N)N)O[C@@H](C)[C@]2(O)C=O)O[C@@H](CO)[C@H](O)[C@H]1O` [Streptomycin] + CCCc1nc2c(C)cc(-c3nc4ccccc4n3C)cc2n1Cc1ccc(-c2ccccc2C(=O)O)cc1 [Telmisartan]: in the assay on S. aureus DSM 20231, the Bliss interaction score was 0.123.
Regarding `CC[C@H](c1ccc(O)cc1)[C@@H](CC)c1ccc(O)cc1` [Hexestrol] + CO[C@@]12[C@H](COC(N)=O)C3=C(C(=O)C(C)=C(N)C3=O)N1C[C@@H]1N[C@@H]12 [MitomycinC], the Bliss interaction score in the assay on S. aureus DSM 20231 is -0.248.
